Where a name gives a salt, the structure may show the parent alone. Read-outs that look alike come from different tables or passages of the source.
Biological target: T1, recombinant human MGAT2 enzyme (Homo sapiens, UniProt Q3SYC2)
T1 construct: made in house; host or cells: CHO-K1 (Jump-In CHO-K1 Kit, Life Technologies); microsomal fraction used as the enzyme solution
Test: Test for human MGAT2 activity inhibitory action (14C-oleoyl CoA, recombinant enzyme microsomes)
Assay type: biochemical
Set-up: key to Potency relative to Comparative Example 1 (higher = more potent): % inhibition = {1−(C−B)/(A−B)}×100, B = 10 μM Comparative Example 1
Settings: for IC50: read-out: IC50
Procedure: The human MGAT2 gene described in Am. J. Physiol. Endocrinol. Metab. 285: E927-E937, 2003 was expressed using Jump-In™ CHO-K1 Kit (Life technologies) as described in the attached manual. The cells were suspended in a buffer containing Tris-hydrochloric acid (pH 7.4) at a final concentration of 1 mM, 1 mM ethylenediaminetetraacetic acid, 1 mM dithiothreitol, 250 mM sucrose, and complete protease inhibitor cocktail (Roche applied Science), and then disrupted using a Teflon homogenizer (AS ONE Corporation), followed by centrifugation at 130 g for 10 minutes. The supernatant was further centrifuged at 100,000 g for 1 hour to obtain a pellet as microsomes containing the recombinant enzyme, and a solution obtained by suspending this pellet at a protein concentration of about 800 to 1900 μg/ml was used as an MGAT recombinant enzyme solution.
To a buffer containing 50 mM Tris-hydrochloric acid (pH 7.4), 6 mM magnesium chloride, and 2 mg/mL bovine serum albumin, a test compound was added, and the final concentration of dimethyl sulfoxide was adjusted to 0.3%. Moreover, 2-monooleoyl glycerol, oleoyl CoA, 1-^14C-oleoyl CoA (Perkin Elmer), and orlistat (SIGMA) were added at final concentrations of 50 μM, 50 μM, 2.2 μM, and 8.3 μM, respectively, followed by incubation at 37° C. for 10 minutes. After 10 minutes, the recombinant human MGAT2 enzyme solution was added at a final concentration of 0.67 μg/mL, and the reaction was started, with the amount of the reaction solution being 150 μl. The reaction was carried out at 37° C. for 30 minutes.
After 30 minutes, the reaction was stopped by adding 300 μl of isopropanol:heptane:water=(80:20:2) to the reaction liquid. Further, 200 μl of heptane and 100 μl of water were added, followed by stirring. Then, 100 μl of the upper layer was transferred to a 96-well plate (Corning), and mixed with 100 μl of liquid scintillator (LumaSafe Plus, Lumac). Then, the ^14C count was quantitatively determined using TopCount NXT™ microplate scintillation luminescence counter (Perkin Elmer).
The ^14C count in a case where no test compound was added was defined as A, the ^14C count in a case where 10 μM of the compound (Comparative Example 1) of Example No. 8 of WO2008/038768 was added was defined as B, and the ^14C count in the case where the test compound was added was taken as C. For this case, {1−(C−B)/(A−B)}×100(%) was calculated as the human MGAT2 activity inhibition ratio of the test compound (shown in the column named vs Comp. Ex. 1 in the following Table). A greater value of the “vs Comparative Example 1” means that the MGAT2 activity inhibitory action of the compound of Example was higher as compared to the MGAT2 activity inhibitory action of the compound of Comparative Example 1 (i.e., the human MGAT2 activity inhibition ratio was higher). […] Since this evaluation test was conducted for two separate groups, the test results of the two groups are shown separately in Table (First Test) and Table 4 (Second Test).
Next, the compounds of Examples 25 to 60 of the present invention were also investigated for their pharmacological action by using the same method as in Examples 1 to 24. […] Note that, a comparative evaluation test against the compound of Comparative Example 1 was conducted for each of the compounds of Examples (in every measurement of the inhibitory activity of the compounds of Examples 25 to 60, the inhibitory activity of the compound of Comparative Example 1 was measured). The 50% inhibition concentrations of Comparative Example 1 in the measurement of the inhibitory activities of the compounds of Examples 25 to 60 were shown in Table 5 as “IC50 (nM) of Comparative Example 1.”

[1] = First Test (Table 3), relative to Comparative Example 1, greater value = higher inhibitory action
[2] = Second Test (Table 4), relative to Comparative Example 1

T1 sequence (Q3SYC2 whole entry): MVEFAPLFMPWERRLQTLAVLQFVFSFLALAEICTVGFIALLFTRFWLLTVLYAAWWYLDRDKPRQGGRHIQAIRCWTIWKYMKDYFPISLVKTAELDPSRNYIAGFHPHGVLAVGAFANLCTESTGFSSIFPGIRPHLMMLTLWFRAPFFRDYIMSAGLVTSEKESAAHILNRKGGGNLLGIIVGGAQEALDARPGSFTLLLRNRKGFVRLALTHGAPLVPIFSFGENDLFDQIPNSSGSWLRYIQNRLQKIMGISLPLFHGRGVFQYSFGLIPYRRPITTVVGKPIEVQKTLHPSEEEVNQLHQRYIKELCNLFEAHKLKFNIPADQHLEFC

SMILES | IC50 (First Test (Table 3)) [nM] | Potency relative to Comparative Example 1 (higher = more potent) [1] | IC50 (Second Test (Table 4)) [nM] | Potency relative to Comparative Example 1 (higher = more potent) [2]
O=C(CNCc1ccc(C(F)(F)F)cc1)N1CCc2nc(SC3CCC3)n(-c3ccccc3)c(=O)c2C1 [Example 1, 2-cyclobutylsulfanyl-3-phenyl-6-[2-[[4-(trifluoromethyl)phenyl]methylamino]acetyl]-7,8-dihydro-5H-pyrido[4,3-d]pyrimidin-4-one trifluoroacetate] | 4.1 | 54 | – | –
O=C(CNCCCc1ccccc1)N1CCc2nc(SC3CCC3)n(-c3ccccc3)c(=O)c2C1 [Example 2, 2-cyclobutylsulfanyl-3-phenyl-6-[2-(3-phenylpropylamino)acetyl]-7,8-dihydro-5H-pyrido[4,3-d]pyrimidin-4-one trifluoroacetate] | 1.3 | 171 | – | –
O=C(CNCc1ccc(Cl)cc1)N1CCc2nc(SC3CCC3)n(-c3ccccc3)c(=O)c2C1 [Example 3, 6-[2-[(4-chlorophenyl)methylamino]acetyl]-2-cyclobutylsulfanyl-3-phenyl-7,8-dihydro-5H-pyrido[4,3-d]pyrimidin-4-one trifluoroacetate] | 3.7 | 60 | – | –
O=C(CNCc1cccc(Cl)c1)N1CCc2nc(SC3CCC3)n(-c3ccccc3)c(=O)c2C1 [Example 4, 6-[2-[(3-chlorophenyl)methylamino]acetyl]-2-cyclobutylsulfanyl-3-phenyl-7,8-dihydro-5H-pyrido 4,3-[d]pyrimidin-4-one trifluoroacetate] | 2.9 | 77 | – | –
O=C(CNCc1ccc(OCc2ccc(C(F)(F)F)cc2)cc1)N1CCc2nc(SC3CCC3)n(-c3ccccc3)c(=O)c2C1 [Example 6, 2-cyclobutylsulfanyl-3-phenyl-6-[2-[[4-[[4-(trifluoromethyl)phenyl]methoxy]phenyl]methylamino]acetyl]-7,8-dihydro-5H-pyrido[4,3-d]pyrimidin-4-one hydrate trifluoroacetate] | 1.6 | 144 | – | –
O=C(CNCc1ccc(COc2ccccc2)cc1)N1CCc2nc(SC3CCC3)n(-c3ccccc3)c(=O)c2C1 [Example 7, 2-cyclobutylsulfanyl-6-[2-[[4-(phenoxymethyl)phenyl]methylamino]acetyl]-3-phenyl-7,8-dihydro-5H-pyrido[4,3-d]pyrimidin-4-one trifluoroacetate] | 2.3 | 75 | – | –
O=C(CNCCc1ccccc1)N1CCc2nc(SC3CCC3)n(-c3ccccc3)c(=O)c2C1 [Example 8, 2-cyclobutylsulfanyl-6-[2-(phenylethylamino)acetyl]-3-phenyl-7,8-dihydro-5H-pyrido[4,3-d]pyrimidin-4-one trifluoroacetate] | 3.5 | 63 | – | –
O=C(CNCCOc1ccc(F)c(F)c1)N1CCc2nc(SC3CCC3)n(-c3ccccc3)c(=O)c2C1 [Example 9, 2-cyclobutylsulfanyl-6-[2-[2-(3,4-difluorophenoxy)ethylamino]acetyl]-3-phenyl-7,8-dihydro-5H-pyrido[4,3-d]pyrimidin-4-one trifluoroacetate] | 3.9 | 57 | – | –
O=C(CCNCc1ccccc1)N1CCc2nc(SC3CCC3)n(-c3ccccc3)c(=O)c2C1 [Example 10, 6-[3-(benzylamino)propanoyl]-2-cyclobutylsulfanyl-3-phenyl-7,8-dihydro-5H-pyrido[4,3-d]pyrimidin-4-one trifluoroacetate] | 0.82 | 273 | – | –
[2H]c1c([2H])c([2H])c(-n2c(SC3CCC3)nc3c(c2=O)CN(C(=O)CCNCc2ccccc2)CC3)c([2H])c1[2H] [Example 11, 6-[3-(benzylamino)propanoyl]-2-cyclobutylsulfanyl-3-(2,3,4,5,6-pentadeuteriophenyl)-7,8-dihydro-5H-pyrido[4,3-d]pyrimidin-4-one trifluoroacetate] | – | – | 1.8 | 166
O=C(CCNCc1ccccc1)N1CCc2nc(SC3CCC3)n(CC3CCC3)c(=O)c2C1 [Example 12, 6-[3-(benzylamino)propanoyl]-3-(cyclobutylmethyl)-2-cyclobutylsulfanyl-7,8-dihydro-4H-pyrido[4,3-d]pyrimidin-4-one trifluoroacetate] | – | – | 1.4 | 216
O=C(CCNCc1ccccc1)N1CCc2nc(SC3CCC3)n(C[C@H]3CCCO3)c(=O)c2C1 [Example 13, 6-[3-(benzylamino)propanoyl]-2-cyclobutylsulfanyl-3-[[(2R)-tetrahydrofuran-2-yl]methyl]-7,8-dihydro-5H-pyrido[4,3-d]pyrimidin-4-one trifluoroacetate] | – | – | 6.9 | 44
O=C(CCNCc1ccccc1)N1CCc2nc(SC3CCC3)n(Cc3ccco3)c(=O)c2C1 [Example 14, 6-[3-(benzylamino)propanoyl]-2-cyclobutylsulfanyl-3-(2-furylmethyl)-7,8-dihydro-5H-pyrido[4,3-d]pyrimidin-4-one trifluoroacetate] | – | – | 4.7 | 65
O=C(CCNCc1ccccc1)N1CCc2nc(SC3CCC3)n(C3CCCC3)c(=O)c2C1 [Example 15, 6-[3-(benzylamino)propanoyl]-2-cyclobutylsulfanyl-3-cyclopentyl-7,8-dihydro-5H-pyrido[4,3-d]pyrimidin-4-one trifluoroacetate] | – | – | 2.4 | 129
O=C(CCNCc1ccsc1)N1CCc2nc(SC3CCC3)n(-c3ccccc3)c(=O)c2C1 [Example 16, 2-cyclobutylsulfanyl-3-phenyl-6-[3-(3-thienylmeethylamino)propanoyl]-7,8-dihydro-5H-pyrido[4,3-d]pyrimidin-4-one trifluoroacetate] | – | – | 1.8 | 173
COc1ccccc1CNCCC(=O)N1CCc2nc(SC3CCC3)n(-c3ccccc3)c(=O)c2C1 [Example 17, 2-cyclobutylsulfanyl-6-[3-[(2-methoxyphenyl)methylamino]propanoyl]-3-phenyl-7,8-dihydro-5H-pyrido[4,3-d]pyrimidin-4-one trifluoroacetate] | – | – | 2.1 | 148
O=C(CCNCc1ccccc1F)N1CCc2nc(SC3CCC3)n(-c3ccccc3)c(=O)c2C1 [Example 18, 2-cyclobutylsulfanyl-6-[3-[(2-fluorophenyl)methylammino]propanoyl]-3-phenyl-7,8-dihydro-5H-pyrido[4,3-d]pyrimidin-4-one trifluoroacetate] | – | – | 2.3 | 134
O=C(CCNCc1ccc(C(F)(F)F)cc1)N1CCc2nc(SC3CCC3)n(-c3ccccc3)c(=O)c2C1 [Example 19, 2-cyclobutylsulfanyl-3-phenyl-6-[3-[[4-(trifluoromethyl)phenyl]methylamino]propanoyl]-7,8-dihydro-5H-pyrido[4,3-d]pyrimidin-4-one trifluoroacetate] | – | – | 0.9 | 352
